Laboratory results published in patent US8906902B2, “Antibacterial compounds” (Biota Europe Ltd., priority 2012, dated 2014).
≈ marks a conversion by molar mass, not a printed value.

Columns and labels:
S. aureus (ATCC 29213) = assay: Antibacterial activity MIC, S. aureus; assay type: cell-based; conditions: Staphylococcus aureus, ATCC29213
S. pyogenes (ATCC 51339) = assay: Antibacterial activity MIC, S. pyogenes; assay type: cell-based; conditions: Streptococcus pyogenes, ATCC51339
[1] = test system: H. influenzae (ATCC 49247); assay: Antibacterial activity MIC, H. influenzae; assay type: cell-based; conditions: Haemophilus influenzae, ATCC49247
[2] = Pharmacokinetic profile, rat assay (IV); assay type: in vivo; conditions: plasma
Experimental: The pharmacokinetic profiles of compounds are determined by measuring the compound concentration in plasma by LC/MS/MS following a single intravenous or peroral administration of the compounds at a dose of 1 or 3 mg/kg individually or in a cassette of up to 5 compounds. The concentrations are described as the mean plasma concentrations at each time point from three animals. Intravenous dose formulation is administered as a single bolus dose through the tail vein. Oral dose formulation is administered to animals by an oral gavage needle. In both cases the dose volume is 5.0 mL/kg. Blood is collected from rats using a jugular vein catheter and from anesthetized mice through a capillary guided into the retro-orbital plexus. The collected blood is then centrifuged to obtain plasma and the compounds extracted into methanol prior to determining the compound concentration by LC/MS/MS.
The pharmacokinetic profiles of selected compounds of the invention were compared directly with their primary alcohol analogues, Compounds A and B below, in the rat assay (IV).

S. pneumoniae ATCC6301 = assay: Mouse survival model (lung infection); assay type: in vivo; conditions: CD-1 mice
Experimental: Anaesthetised female CD-1 mice (18-22 g) were inoculated intranasally with approximately 10^6 cfus of S. pneumoniae ATCC6301 prepared from a fresh overnight culture by placing 50 μl of inoculum on the nares and allowing the mice to inhale. Compounds are administered as indicated at 24, 48 and 72 hours post inoculation and the mice monitored for survival for seven or nine days after infection. […] Similarly, when Compound 17 was dosed IV at 30 mg/kg 90% of mice survived at day seven.

Thermodynamic solubility = assay type: physicochemical; conditions: aqueous buffer, thermodynamic from solid; pH 7.4, HEPES buffer, 24 hours shaking at room temperature
Experimental: In a 1.5 mL eppendorf tube, approximately 2 mg of compound is resuspended in a volume of HEPES buffer pH 7.4 to achieve a 5 mg/mL suspension. The tubes are placed on an orbital shaker at room temperature and following shaking for 24 hours the tubes are spun at 1400 rpm in a bench top centrifuge to pellet the undissolved compound. Duplicate 150 μL aliquots of the supernatant are then transferred into two ultracentrifuge tubes and spun at 357440 g for 4 hours at 20° C. 50 μL of the supernatant from each tube is then diluted with 100 μL of methanol and analysed by HPLC or LCMS to determine the concentration of compound in solution by comparing to a standard curve. The thermodynamic solubility of representative Compounds 19, 123, 134 and 153 were tested and determined to be highly soluble, at ≧2 mg/mL, at pH 7.4.

Microsomal stability = assay type: in vitro ADME; conditions: pH 7.4; mouse liver microsomes; major metabolite the parent alcohol
Experimental: In a 96 well polypropylene plate, 10 μM compound is prepared in 100 mM KPO4 buffer pH 7.4, 5 mM MgCl2, 25 μg/ml Alamethicin, 1 mg/ml (protein) liver microsomes (mouse) and a final DMSO concentration of 0.1% in 100 μl in duplicate. The plate is pre-incubated at 37° C. for 10 minutes after which reactions are initiated by the addition of NADPH and UDPGA to a final concentration of 1 mM and 5 mM respectively. Reactions are incubated at 37° C. and terminated by the addition of 100 μl DMSO at 0, 10, 30 and 60 minutes. Samples of 100 μl are withdrawn and added to 50 μl ice cold methanol and mixed on an orbital shaker for 10 minutes to precipitate the proteins. The samples are then centrifuged at 4000 rpm and 10° C. for 30 minutes and supernatants are analysed by LCMS. The T1/2 and clearance are determined by linear regression from the peak areas.

Work on `CCNC(=O)Nc1nc2cc(-c3cnc(N4CCC(C)(C(=O)O)CC4)nc3)cc(-c3ccc(C(C)(C)O)cn3)c2s1` [Compound 99, 1-[5-[2-(ethylcarbamoylamino)-7-[5-(1-hydroxy-1-methyl-ethyl)-2-pyridyl]-1,3-benzothiazol-5-yl]pyrimidin-2-yl]-4-methyl-piperidine-4-carboxylic acid] yielded an MIC (S. aureus (ATCC 29213)) of 2 µg/mL (≈ 3.47 µM), an MIC (S. pyogenes (ATCC 51339)) of no more than 1 µg/mL and an MIC [1] of no more than 2 µg/mL.
Work on `CCNC(=O)Nc1nc2cc(-c3cnc(C(C)(C)O)nc3)cc(-c3ccccn3)c2s1` [Compound 1, 1-ethyl-3-[5-[2-(1-hydroxy-1-methyl-ethyl)pyrimidin-5-yl]-7-(2-pyridyl)-1,3-benzothiazol-2-yl]urea] yielded an AUC ([2]; dose 1 mg/kg) of 3100 ng·h/mL, a clearance ([2]; dose 1 mg/kg) of 4.3 mL/min/kg and a half-life ([2]; dose 1 mg/kg) of 3.38 h. The mice surviving (S. pneumoniae ATCC6301; dosed IV at 10 mg/kg, at seven or nine days) was 80%.
`CCNC(=O)Nc1nc2cc(-c3cnc([C@H](C)OP(=O)(O)O)nc3)cc(-c3ccccn3)c2s1` [Compound 153, [(1S)-1-[5-[2-(ethylcarbamoylamino)-7-(2-pyridyl)-1,3-benzothiazol-5-yl]pyrimidin-2-yl]ethyl]dihydrogen phosphate] showed a solubility thermodynamic at 24 h (Thermodynamic solubility) of no less than 2000 µg/mL.
For `CCNC(=O)Nc1nc2cc(-c3cnc(C(C)OC(=O)CCC(=O)O)nc3)cc(-c3ccccn3)c2s1` (stereo not shown) [Compound 19, 4-[1-[5-[2-(ethylcarbamoylamino)-7-(2-pyridyl)-1,3-benzothiazol-5-yl]pyrimidin-2-yl]ethoxy]-4-oxo-butanoic acid], the solubility thermodynamic at 24 h (Thermodynamic solubility) was no less than 2000 µg/mL and the half-life at 10 μM (Microsomal stability) was less than 0.333 h.
Work on `CCNC(=O)Nc1nc2cc(-c3cnc([C@H](C)OC(=O)CCC(=O)O)nc3)cc(-c3ccccn3)c2s1` [Compound 133, 4-[(1S)-1-[5-[2-(ethylcarbamoylamino)-7-(2-pyridyl)-1,3-benzothiazol-5-yl]pyrimidin-2-yl]ethoxy]-4-oxo-butanoic acid] yielded a half-life at 10 μM (Microsomal stability) of less than 0.333 h.
`CCNC(=O)Nc1nc2cc(-c3cnc(C4(OC(=O)CCC(=O)O)COC4)nc3)cc(-c3ccccn3)c2s1` [Compound 123, 4-[3-[5-[2-(ethylcarbamoylamino)-7-(2-pyridyl)-1,3-benzothiazol-5-yl]pyrimidin-2-yl]oxetan-3-yl]oxy-4-oxo-butanoic acid] gave a solubility thermodynamic at 24 h (Thermodynamic solubility) of no less than 2000 µg/mL and a half-life at 10 μM (Microsomal stability) of less than 0.333 h.
In the case of `CCNC(=O)Nc1nc2cc(-c3cnc(C(C)(C)O)nc3)cc(-c3nccc(N4CCN(CC)CC4)n3)c2s1` [Compound 79, 1-ethyl-3-[7-[4-(4-ethylpiperazin-1-yl)pyrimidin-2-yl]-5-[2-(1-hydroxy-1-methyl-ethyl)pyrimidin-5-yl]-1,3-benzothiazol-2-yl]urea], the MIC (S. aureus (ATCC 29213)) was 2 µg/mL (≈ 3.65 µM) and the MIC (S. pyogenes (ATCC 51339)) was 2 µg/mL (≈ 3.65 µM).
Work on `CCNC(=O)Nc1nc2cc(-c3cnc(CO)nc3)cc(-c3ccccn3)c2s1` [Compound A, 1-Ethyl-3-[5-[2-(hydroxymethyl)pyrimidin-5-yl]-7-(2-pyridyl)-1,3-benzothiazol-2-yl]urea, reference compound] yielded an AUC ([2]; dose 3 mg/kg) of 2000 ng·h/mL, a clearance ([2]; dose 3 mg/kg) of 25 mL/min/kg and a half-life ([2]; dose 3 mg/kg) of 1.35 h.
For `CC(=O)NC[C@H]1CN(c2ccc(N3CCOCC3)c(F)c2)C(=O)O1` [Linezolid, reference compound], the “survival of mice (in words)” value (S. pneumoniae ATCC6301; dosed with 10 mg/kg) was “dead by day six”.
Compound `CCNC(=O)Nc1nc2cc(-c3ccc(C(C)(C)O)nc3)cc(-c3ccccn3)c2s1` [Compound 27, 1-ethyl-3-[5-[6-(1-hydroxy-1-methyl-ethyl)-3-pyridyl]-7-(2-pyridyl)-1,3-benzothiazol-2-yl]urea] has an AUC ([2]; dose 1 mg/kg) of 1130 ng·h/mL, a clearance ([2]; dose 1 mg/kg) of 13 mL/min/kg and a half-life ([2]; dose 1 mg/kg) of 2.63 h.
`CCNC(=O)Nc1nc2cc(-c3ccc(CO)nc3)cc(-c3ccccn3)c2s1` [Compound B, 1-Ethyl-3-[5-[6-(hydroxymethyl)-3-pyridyl]-7-(2-pyridyl)-1,3-benzothiazol-2-yl]urea, reference compound] gave an AUC ([2]; dose 3 mg/kg) of 1800 ng·h/mL, a clearance ([2]; dose 3 mg/kg) of 28 mL/min/kg and a half-life ([2]; dose 3 mg/kg) of 1 h.
With `CCNC(=O)Nc1nc2cc(-c3cnc([C@@H](C)OC(=O)CCC(=O)O)nc3)cc(-c3ccccn3)c2s1` [Compound 134, 4-[(1R)-1-[5-[2-(ethylcarbamoylamino)-7-(2-pyridyl)-1,3-benzothiazol-5-yl]pyrimidin-2-yl]ethoxy]-4-oxo-butanoic acid] the solubility thermodynamic at 24 h (Thermodynamic solubility) was no less than 2000 µg/mL and the half-life at 10 μM (Microsomal stability) was less than 0.333 h.
Compound `CCNC(=O)Nc1nc2cc(-c3cnc(C(C)O)nc3)cc(-c3ccccn3)c2s1` (stereo not shown) [Compound 17, 1-ethyl-3-[5-[2-(1-hydroxyethyl)pyrimidin-5-yl]-7-(2-pyridyl)-1,3-benzothiazol-2-yl]urea] has an AUC ([2]; dose 3 mg/kg) of 4000 ng·h/mL, a clearance ([2]; dose 3 mg/kg) of 12 mL/min/kg and a half-life ([2]; dose 3 mg/kg) of 1.78 h. It also gave a mice survived (S. pneumoniae ATCC6301; dosed IV at 30 mg/kg, at day seven) of 90%.
